How the values were obtained:
Type in all cases: in vivo
[1] = test system: Digitaria sanguinalis (DIGSA); test: Test Example 1 post-emergence herbicidal activity; conditions: 360 h, rate 125 g/ha, evaluated 15 days later, read-out: Post-emergence activity DIGSA (100=total damage to plant; 0=no damage to plant)
Outline: (§1)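 Greenhouse pot test; spray application pre-emergence (1 d after sowing) or post-emergence (10 d growth). Rating 0–100% damage; pre read at 20 d, post at 15 d.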

[2] = test system: Alopecurus myosuroides (ALOMY); test: Test Example 1 post-emergence herbicidal activity; conditions: 360 h, rate 125 g/ha, evaluated 15 days later, read-out: Post-emergence activity ALOMY (100=total damage to plant; 0=no damage to plant)
Outline: as §1

[3] = test system: Avena fatua (AVEFA); test: Test Example 1 post-emergence herbicidal activity; conditions: 360 h, rate 125 g/ha, evaluated 15 days later, read-out: Post-emergence activity AVEFA (100=total damage to plant; 0=no damage to plant)
Outline: as §1

[4] = test system: Setaria faberi (SETFA); test: Test Example 1 post-emergence herbicidal activity; conditions: 360 h, rate 125 g/ha, evaluated 15 days later, read-out: Post-emergence activity SETFA (100=total damage to plant; 0=no damage to plant)
Outline: as §1

[5] = test system: Echinochloa crus-galli (ECHCG); test: Test Example 1 post-emergence herbicidal activity; conditions: 360 h, rate 125 g/ha, evaluated 15 days later, read-out: Post-emergence activity ECHCG (100=total damage to plant; 0=no damage to plant)
Outline: as §1

[6] = test system: Lolium perenne (LOLPE); test: Test Example 1 post-emergence herbicidal activity; conditions: 360 h, rate 125 g/ha, evaluated 15 days later, read-out: Post-emergence activity LOLPE (100=total damage to plant; 0=no damage to plant)
Outline: as §1

[7] = test system: winter barley 'Antoniya'; test: Test Example 2 post-emergence crop injury, alone and with cloquintocet-mexyl; conditions: Adigor 0.5%, 2-3 leaf seedlings, assessed 14-21 days after application
Excerpt: (§2) Test compounds were applied post-emergence at 60 g ai/ha, alone and in combination with cloquintocet-mexyl at 60 g ai/ha; the adjuvant Adigor (0.5%) was included for every treatment. The application volume was […]. Target plants were 2-3 leaf seedlings of winter wheat ‘Hereward’ and winter barley ‘Antoniya’ grown in a greenhouse under ambient conditions. Assessments were made at 14-21 days after application.

[8] = test system: winter wheat 'Hereward'; test: as above; conditions: Adigor 0.5%, 2-3 leaf seedlings, assessed 14-21 days after application
Excerpt: as §2

[9] = test system: Digitaria sanguinalis (DIGSA); test: Test Example 1 pre-emergence herbicidal activity; conditions: Digitaria sanguinalis, 480 h, rate 250 g/ha, evaluated 20 days later, read-out: Pre-emergence activity DIGSA (100=total damage to plant; 0=no damage to plant)
Outline: as §1

[10] = test system: Alopecurus myosuroides (ALOMY); test: Test Example 1 pre-emergence herbicidal activity; conditions: Alopecurus myosuroides, 480 h, rate 250 g/ha, evaluated 20 days later, read-out: Pre-emergence activity ALOMY (100=total damage to plant; 0=no damage to plant)
Outline: as §1

[11] = test system: Avena fatua (AVEFA); test: Test Example 1 pre-emergence herbicidal activity; conditions: Avena fatua, 480 h, rate 250 g/ha, evaluated 20 days later, read-out: Pre-emergence activity AVEFA (100=total damage to plant; 0=no damage to plant)
Outline: as §1

[12] = test system: Setaria faberi (SETFA); test: Test Example 1 pre-emergence herbicidal activity; conditions: Setaria faberi, 480 h, rate 250 g/ha, evaluated 20 days later, read-out: Pre-emergence activity SETFA (100=total damage to plant; 0=no damage to plant)
Outline: as §1

[13] = test system: Echinochloa crus-galli (ECHCG); test: Test Example 1 pre-emergence herbicidal activity; conditions: Echinochloa crus-galli, 480 h, rate 250 g/ha, evaluated 20 days later, read-out: Pre-emergence activity ECHCG (100=total damage to plant; 0=no damage to plant)
Outline: as §1

[14] = test system: Lolium perenne (LOLPE); test: Test Example 1 pre-emergence herbicidal activity; conditions: Lolium perenne, 480 h, rate 250 g/ha, evaluated 20 days later, read-out: Pre-emergence activity LOLPE (100=total damage to plant; 0=no damage to plant)
Outline: as §1

[15] = compound 60 g/ha in combination with cloquintocet-mexyl 60 g/ha
[16] = compound 60 g/ha, cloquintocet-mexyl 0 g/ha

| Compound | pest or weed control at 125 g/ha [1] [%] | pest or weed control at 125 g/ha [2] [%] | pest or weed control at 125 g/ha [3] [%] | pest or weed control at 125 g/ha [4] [%] | pest or weed control at 125 g/ha [5] [%] | pest or weed control at 125 g/ha [6] [%] | Crop Injury (%) Barley [7, 15] [%] | Crop Injury (%) Barley [7, 16] [%] | Crop Injury (%) Wheat [8, 15] [%] | Crop Injury (%) Wheat [8, 16] [%] | pest or weed control at 250 g/ha [9] [%] | pest or weed control at 250 g/ha [10] [%] | pest or weed control at 250 g/ha [11] [%] | pest or weed control at 250 g/ha [12] [%] | pest or weed control at 250 g/ha [13] [%] | pest or weed control at 250 g/ha [14] [%] |
| --- | --- | --- | --- | --- | --- | --- | --- | --- | --- | --- | --- | --- | --- | --- | --- | --- |
| Cc1cc(C)c(C2=C(O)[C@H]3[C@@H](C2=O)[C@@H]2CC[C@H]3O2)c(C)c1 [Example T3] | 100 | 60 | 30 | 90 | 100 | 60 | 5 | 5 | 0 | 28 | 80 | 90 | 80 | 70 | 100 | 100 |
| CCc1cc(C)cc(CC)c1C1=C(O)[C@@H]2[C@@H]3O[C@@H](C[C@H]3c3ccccc3[N+](=O)[O-])[C@@H]2C1=O [Example T177] | 30 | 80 | 70 | 20 | 80 | 30 |  |  |  |  | 10 | 60 | 50 | 50 | 70 | 70 |
| CCc1cc(C)cc(CC)c1C1=C(O)[C@@H]2[C@@H]3O[C@@H](C[C@H]3c3cccc(C)c3)[C@@H]2C1=O [Example T179] | 50 | 80 | 80 | 10 | 70 | 80 |  |  |  |  | 60 | 70 | 60 | 10 | 70 | 80 |
| CCc1cc(C)cc(CC)c1C1=C(O)[C@@H]2[C@@H]3O[C@@H](C[C@H]3c3cccc(C#N)c3)[C@@H]2C1=O [Example T182] | 100 | 100 | 90 | 100 | 100 | 80 |  |  |  |  | 80 | 30 | 50 | 50 | 90 | 40 |
| CCc1cc(C)cc(CC)c1C1=C(O)[C@@H]2[C@@H]3O[C@@H](C[C@H]3c3ccc(F)cc3)[C@@H]2C1=O [Example T185] | 100 | 90 | 80 | 100 | 100 | 80 |  |  |  |  | 80 | 80 | 80 | 80 | 80 | 100 |
| Cc1cc(C)c(C2=C(O)[C@@H]3[C@@H]4O[C@@H](C[C@H]4c4cnccn4)[C@@H]3C2=O)c(C)c1 [Example T187] | 60 | 70 | 10 | 60 | 70 | 40 |  |  |  |  | 20 | 10 | 20 | 40 | 10 | 60 |
| Cc1cc(C)c(C2=C(O)[C@@H]3[C@@H]4O[C@@H](C[C@H]4c4cnc5ccccc5n4)[C@@H]3C2=O)c(C)c1 [Example T188] | 100 | 80 | 70 | 70 | 100 | 30 |  |  |  |  | 100 | 40 | 0 | 70 | 60 | 50 |
| Cc1cc(C)c(C2=C(O)[C@@H]3[C@@H]4O[C@@H](C[C@H]4c4nc(C)cnc4C)[C@@H]3C2=O)c(C)c1 [Example T193] | 60 | 60 | 40 | 30 | 60 | 30 |  |  |  |  | 20 | 20 | 30 | 40 | 20 | 60 |
| CCc1nc2ccccc2nc1[C@@H]1C[C@@H]2O[C@H]1[C@H]1C(O)=C(c3c(C)cc(C)cc3C)C(=O)[C@H]12 [Example T194] | 70 | 30 | 0 | 0 | 80 | 20 |  |  |  |  | 70 | 0 | 20 | 50 | 50 | 20 |
| Cc1cc(C)c(C2=C(O)[C@@H]3[C@@H]4O[C@@H](C[C@H]4c4ncc(C(F)(F)F)cc4C(F)(F)F)[C@@H]3C2=O)c(C)c1 [Example T203] | 50 | 20 | 10 | 0 | 50 | 10 |  |  |  |  | 70 | 20 | 20 | 70 | 90 | 60 |
| COc1cc(C)c(C2=C(O)[C@H]3[C@@H](C2=O)[C@@H]2CC[C@H]3O2)c(C)c1 [Example T208] | 50 | 70 | 70 | 70 | 80 | 80 |  |  |  |  | 70 | 50 | 70 | 80 | 80 | 80 |

Source: patent US8754242B2, “Herbicides” (Syngenta Crop Protection LLC, priority 2007, dated 2014)
